# Measurements as given in patent publication US10870876B2, “Method for detecting a presence or absence of at least one first zone of inhibition” (BIOMÉRIEUX, priority 2015, dated 2020).
# Assays:
# Type in all cases: cell-based
# [1] = test system: Escherichia coli ATCC 35218; experiment: Etest strip MIC, conventional method by flooding of the medium; design: key: R = resistant
# Protocol: (§1) Another method for detecting sensitivity to antibiotics uses an antibiotic gradient deposited on an agar medium. For this purpose, paper or plastic strips are impregnated with a concentration gradient of antibiotic. The strips soaked in this way are graduated so as to indicate the antibiotic concentration values present along the strip. One or more strips may be placed on a Mueller-Hinton agar, inoculated beforehand in the same way as the above method. After incubation, an ovoid area of inhibition of microbial growth around each strip appears if the microorganism present in the sample is sensitive to the antibiotic contained in the strip. It is thus possible to deduce a minimum inhibitory concentration (MIC) for microbial growth. The minimum concentration of the antimicrobial agent which makes it possible to inhibit the growth of the microorganism which is generally retained is thus the value of the concentration which can be read on the graduation directly below the point of contact between the zone of inhibition and the long edge of the strip. In other words, the MIC is the concentration visible at the limit of the zone of inhibition, at the boundary between the zone of growth of the microorganisms and the zone of non-growth. More particularly, the MIC can be read by noting the point at which the ovoid area of the zone of inhibition intersects the strip, and by noting the corresponding graduation.
# (§2) According to a first experiment of this example, an inoculum of a strain of Escherichia coli ATCC 35218 (American Type Culture Collection) having a concentration of 0.5 McFarland is thus deposited in droplets along four Etest® strips (bioMérieux), each deposited on a Mueller Hinton E agar culture medium (bioMérieux). The strips contain respectively a concentration gradient of gentamicin, tetracycline, ampicillin/sulbactam, ampicillin. In the same manner, an inoculum of a strain of Escherichia coli ATCC 25922 having a concentration of 0.5 McFarland is deposited in droplets along four Etest® strips (bioMérieux), each deposited on a Mueller Hinton E agar culture medium (bioMérieux). The strips also contain a concentration gradient of gentamicin, tetracycline, ampicillin/sulbactam, ampicillin.
# (§3) The values are given in μg/ml at different incubation times. The inhibition values for the flooding method are measured from images obtained by a shadowgraphy capture device as described above. The inhibition values for the method according to the invention are measured from images obtained by a shadowgraphy capture device at 5 hours, and visually at 7 hours.
# [2] = test system: Escherichia coli ATCC 25922; experiment: as above; details: for MIC: Escherichia coli, ATCC25922, ATCC 25922, 0.5 McFarland, read-out: minimum inhibitory concentration; for minimum inhibitory concentration: ATCC 25922, 0.5 McFarland
# Protocol: as §1, §2, §3
# [3] = test system: Escherichia coli ATCC 35218; experiment: Etest strip MIC, deposition of the sample in droplets along the strip; design: key to minimum inhibitory concentration / MIC: R = resistant
# Text: (§4) FIGS. 8a to 8d and 9a to 9d illustrate this second example of implementation of the invention. According to FIG. 8a, a sample 1 is deposited in the form of a series of droplets, along an axis parallel to the long edge of a strip 3 containing a concentration gradient of chemical agent. The strip 3 comprises graduations of concentrations of chemical agent 13, making it possible to deduce a minimum inhibitory concentration of chemical agent. An example of such a strip is sold by the applicant under the trade name Etest®. According to the FIG. 8b, a strip 3 containing a chemical agent 5 is deposited on a culture medium 2 contained in a Petri dish 4 (for example a Petri dish with a diameter greater than or equal to 9 cm). The detail B in FIG. 8b is visible in FIG. 8c. A sample 1 is deposited in the form of a series of droplets in a deposition zone 8 along an axis 7 parallel to the long edge of the strip 3. In this example, 13 nanoliter drops are deposited by a Pipejet P9 Nanodispenser pipette sold by the company biofluidix and mounted on a robotic arm. The detail C in FIG. 8c is visible in FIG. 8d. 50 droplets are thus deposited along the axis 7 with an interval P of 800 μm. Each droplet covers a surface area of approximately 1 mm^2.
# as §2
# (§5) Fifty droplets, each with a volume of 13 nanoliters and spaced apart by 800 μm, are deposited along each strip. As a function of the concentration of 0.5 McFarland, it is thus estimated that approximately 2000 bacteria are present in each droplet. The eight culture media prepared in this way are then incubated and monitored periodically in order to determine the presence or the absence of a zone of inhibition and/or of growth of the microorganisms.
# FIGS. 9a to 9d illustrate a plan view of the four media in which the sample of Escherichia coli ATCC 35218 was deposited. FIGS. 9a to 9d are obtained by means of a shadowgraphy capture device as presented in relation to FIG. 5. FIG. 9a presents a view after 5 hours of incubation of the sample in the presence of gentamicin. […] A minimum inhibitory concentration value is then obtained at the intersection between the straight line 14 and the long edge of the strip. A minimum inhibitory concentration (MIC) of 2 μg/ml is thus determined.
# Advantageously, a straight line or an arc 15 delimiting the boundary of the zone of growth of microorganisms and the zone of inhibition may be sought, this straight line not necessarily being perpendicular to the long edge and thus reproducing said boundary more faithfully. This straight line or this arc corresponds to a portion of the ovoid area of inhibition observed with conventional inoculation methods and therefore enables better estimation of the MIC. In the case in which a straight line or an arc 15 is sought, the minimum inhibitory concentration may be obtained by tracing a line perpendicular to the long edge of the strip, crossing the point of intersection between the straight line 15 and the axis of deposition of the sample 7, then by seeking the graduation corresponding to this perpendicular line on the strip. […]
# [4] = test system: Escherichia coli ATCC 25922; experiment: as above; details: for MIC: Escherichia coli, ATCC25922, ATCC 25922, 0.5 McFarland, read-out: minimum inhibitory concentration; for minimum inhibitory concentration: ATCC 25922, 0.5 McFarland
# Text: as §4, §2, §5
# as §3, with “The minimum inhibitory concentration results obtained for the strains of Escherichia coli ATCC 35218 and also the strains of Escherichia coli ATCC 25922 are compared with the conventional method by flooding of the medium in table 1 below. The values” for “The values”
# [5] = Escherichia coli, ATCC35218, droplets of 13 nanoliters, ATCC 35218 at 0.5 McFarland, after 5 hours of incubation, shadowgraphy (FIGS. 9a-9d), read-out: minimum inhibitory concentration (MIC)
# [6] = incubation time 5 H (shadowgraphy)
# [7] = Flooding, ATCC 35218, 0.5 McFarland, incubation time 6 H
# [8] = Flooding, ATCC 35218, 0.5 McFarland, incubation time 8 H
# [9] = Table 2, flooding, ATCC 35218, 28 H
# [10] = Deposition in droplets, ATCC 35218, 0.5 McFarland, incubation time 5 H (shadowgraphy)
# [11] = Deposition in droplets, ATCC 35218, 0.5 McFarland, incubation time 7 H (visual)
# [12] = Table 2, droplet (replicate 1 where replicated), ATCC 35218, 0.5 McF, 5 H
# [13] = Table 2, droplet (replicate 1 where replicated), ATCC 35218, 0.5 McF, 7 H
compound,measurement,setting,value
"CN(C)[C@@H]1C(O)=C(C(N)=O)C(=O)[C@@]2(O)C(O)=C3C(=O)c4c(O)cccc4[C@@](C)(O)[C@H]3C[C@@H]12 [Tetracycline, tetracycline]",MIC,"[1]; Escherichia coli, ATCC35218, Flooding, ATCC 35218, 0.5 McFarland, incubation time 4 H, read-out: minimum inhibitory concentration",0.44 µg/mL
same,MIC,"[1]; Escherichia coli, ATCC35218, Flooding, ATCC 35218, 0.5 McFarland, incubation time 5 H, read-out: minimum inhibitory concentration",0.86 µg/mL
same,MIC,"[1]; Escherichia coli, ATCC35218, Flooding, ATCC 35218, 0.5 McFarland, incubation time 6 H, read-out: minimum inhibitory concentration",0.96 µg/mL
same,MIC,"[1]; Escherichia coli, ATCC35218, Flooding, ATCC 35218, 0.5 McFarland, incubation time 8 H, read-out: minimum inhibitory concentration",1.12 µg/mL
same,MIC,"[1]; Escherichia coli, ATCC35218, Flooding, ATCC 35218, 0.5 McFarland, incubation time 24 H, read-out: minimum inhibitory concentration",2.3 µg/mL
same,MIC,"[1]; Escherichia coli, ATCC35218, Table 2, flooding, ATCC 35218, 4 H, read-out: MIC",0.44 µg/mL
same,MIC,"[1]; Escherichia coli, ATCC35218, Table 2, flooding, ATCC 35218, 5 H, read-out: MIC",0.86 µg/mL
same,MIC,"[1]; Escherichia coli, ATCC35218, Table 2, flooding, ATCC 35218, 8 H, read-out: MIC",1.12 µg/mL
same,MIC,"[1]; Escherichia coli, ATCC35218, Table 2, flooding, ATCC 35218, 28 H, read-out: MIC",2.3 µg/mL
same,MIC,"[1]; Escherichia coli, ATCC35218, Table 2, flooding, ATCC 35218, column 4 headed 8 H (between 5 H and 7 H), read-out: MIC",0.96 µg/mL
same,MIC,[2]; incubation time 4 H,0.3 µg/mL
same,MIC,[2]; incubation time 5 H,0.6 µg/mL
same,MIC,[2]; incubation time 6 H,0.66 µg/mL
same,MIC,[2]; incubation time 8 H,0.86 µg/mL
same,MIC,[2]; incubation time 24 H,1.77 µg/mL
same,MIC,"[3]; Escherichia coli, ATCC35218, Deposition in droplets, ATCC 35218, 0.5 McFarland, incubation time 5 H (shadowgraphy), read-out: minimum inhibitory concentration",1.5 µg/mL
same,MIC,"[3]; Escherichia coli, ATCC35218, Deposition in droplets, ATCC 35218, 0.5 McFarland, incubation time 7 H (visual), read-out: minimum inhibitory concentration",2 µg/mL
same,MIC,"[3]; Escherichia coli, ATCC35218, Table 2, droplet (replicate 1 where replicated), ATCC 35218, 0.5 McF, 5 H, read-out: MIC",1.5 µg/mL
same,MIC,"[3]; Escherichia coli, ATCC35218, Table 2, droplet (replicate 1 where replicated), ATCC 35218, 0.5 McF, 7 H, read-out: MIC",2 µg/mL
same,MIC,[3]; [5],1.5 µg/mL
same,MIC,[4]; [6],1.5 µg/mL
same,MIC,[4]; incubation time 7 H (visual),2 µg/mL
"CC1(C)S[C@@H]2[C@H](NC(=O)[C@H](N)c3ccccc3)C(=O)N2[C@H]1C(=O)O [Ampicillin, ampicillin]",minimum inhibitory concentration,[1]; [7],R
same,minimum inhibitory concentration,[1]; [8],R
same,minimum inhibitory concentration,"[1]; Flooding, ATCC 35218, 0.5 McFarland, incubation time 18 H",R
same,MIC,[1]; [9],R
same,MIC,[2]; incubation time 6 H,3.43 µg/mL
same,MIC,[2]; incubation time 8 H,5.21 µg/mL
same,MIC,[2]; incubation time 18 H,5.69 µg/mL
same,minimum inhibitory concentration,[3]; [10],R
same,minimum inhibitory concentration,[3]; [11],R
same,MIC,[3]; [5],> 256 µg/mL
same,MIC,[3]; [12],R
same,MIC,[3]; [13],R
same,MIC,[4]; [6],8 µg/mL
same,MIC,[4]; incubation time 7 H (visual),8 µg/mL
gentamicin,minimum inhibitory concentration,"[1]; Flooding, ATCC 35218, 0.5 McFarland, incubation time 4 H",0.96 µg/mL
same,minimum inhibitory concentration,"[1]; Flooding, ATCC 35218, 0.5 McFarland, incubation time 5 H",1.14 µg/mL
same,minimum inhibitory concentration,[1]; [7],1.17 µg/mL
same,minimum inhibitory concentration,[1]; [8],1.17 µg/mL
same,minimum inhibitory concentration,"[1]; Flooding, ATCC 35218, 0.5 McFarland, incubation time 24 H",1.06 µg/mL
same,MIC,"[1]; Table 2, flooding, ATCC 35218, 4 H",0.96 µg/mL
same,MIC,"[1]; Table 2, flooding, ATCC 35218, 5 H",1.14 µg/mL
same,MIC,[1]; [9],1.06 µg/mL
same,minimum inhibitory concentration,[2]; incubation time 4 H,1.74 µg/mL
same,minimum inhibitory concentration,[2]; incubation time 5 H,1.51 µg/mL
same,minimum inhibitory concentration,[2]; incubation time 6 H,1.75 µg/mL
same,minimum inhibitory concentration,[2]; incubation time 8 H,1.82 µg/mL
same,minimum inhibitory concentration,[2]; incubation time 24 H,1.54 µg/mL
same,minimum inhibitory concentration,[3]; [10],2 µg/mL
same,minimum inhibitory concentration,[3]; [11],2 µg/mL
same,MIC,[3]; [12],2 µg/mL
same,MIC,[3]; [13],2 µg/mL
same,minimum inhibitory concentration (MIC),"[3]; droplets of 13 nanoliters, ATCC 35218 at 0.5 McFarland, after 5 hours of incubation, shadowgraphy (FIGS. 9a-9d)",2 µg/mL
same,minimum inhibitory concentration,[4]; [6],2 µg/mL
same,minimum inhibitory concentration,[4]; incubation time 7 H (visual),2 µg/mL
